Laboratory results taken from PubChem BioAssay (NCI).
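Five compound concentrations were applied to cells in 96-well plates for 48 hours; endpoints were derived by simple linear interpolation of the resulting dose-response curve. GI50: concentration for 50% inhibition of growth. TGI is the concentration that stops growth completely.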

Assays:
Test in all cases: NCI anticancer screen, dose series, 48 h
HCC-2998 colon = system: HCC-2998 colon
SK-OV-3 ovarian = system: SK-OV-3 ovarian
PC-3 prostate = system: PC-3 prostate
NCI-H522 lung = system: NCI-H522 lung
U251 CNS = system: U251 CNS
RXF 393 renal = system: RXF 393 renal
MDA-MB-231 breast = system: MDA-MB-231 breast
MALME-3M melanoma = system: MALME-3M melanoma
SK-MEL-28 melanoma = system: SK-MEL-28 melanoma
LOX IMVI melanoma = system: LOX IMVI melanoma
SF-539 CNS = system: SF-539 CNS
NCI-H226 lung = system: NCI-H226 lung
M14 melanoma = system: M14 melanoma
HOP-92 NSCLC = system: HOP-92 NSCLC
BT-549 breast = system: BT-549 breast
UACC-257 melanoma = system: UACC-257 melanoma
HCT-15 colon = system: HCT-15 colon
COLO 205 colon = system: COLO 205 colon
OVCAR-8 ovarian = system: OVCAR-8 ovarian
SF-268 CNS = system: SF-268 CNS
A549 NSCLC = system: A549 NSCLC
SNB-75 CNS = system: SNB-75 CNS
RPMI-8226 leukemia = system: RPMI-8226 leukemia
MOLT-4 leukemia = system: MOLT-4 leukemia
KM12 colon = system: KM12 colon
IGROV1 ovarian = system: IGROV1 ovarian
NCI-H23 lung = system: NCI-H23 lung
OVCAR-3 ovarian = system: OVCAR-3 ovarian
TK-10 renal = system: TK-10 renal
ACHN renal = system: ACHN renal
K-562 leukemia = system: K-562 leukemia
HL-60(TB) leukemia = system: HL-60(TB) leukemia
HOP-62 NSCLC = system: HOP-62 NSCLC
DU-145 prostate = system: DU-145 prostate
SK-MEL-5 melanoma = system: SK-MEL-5 melanoma
UACC-62 melanoma = system: UACC-62 melanoma
MDA-MB-435 = system: MDA-MB-435
HS 578T breast = system: HS 578T breast
UO-31 renal = system: UO-31 renal
OVCAR-4 ovarian = system: OVCAR-4 ovarian
CCRF-CEM leukemia = system: CCRF-CEM leukemia
HCT-116 colon = system: HCT-116 colon
A498 renal = system: A498 renal
CAKI-1 renal = system: CAKI-1 renal
SK-MEL-2 melanoma = system: SK-MEL-2 melanoma
786-0 renal = system: 786-0 renal
SN12C renal = system: SN12C renal
MCF7 breast = system: MCF7 breast
OVCAR-5 ovarian = system: OVCAR-5 ovarian
SNB-19 CNS = system: SNB-19 CNS
HT29 colon = system: HT29 colon
SW-620 colon = system: SW-620 colon
T-47D breast = system: T-47D breast
NCI-H460 lung = system: NCI-H460 lung
SF-295 CNS = system: SF-295 CNS
NCI/ADR-RES ovarian = system: NCI/ADR-RES ovarian
EKVX NSCLC = system: EKVX NSCLC

With `CC(C)=CC(=O)N[C@@H]1CC2CCC3C(CC[C@@]4(C)C3CC[C@@H]4C(C)N(C)C)[C@@]2(C)C[C@@H]1O` (some centres undefined) the GI50 (HCC-2998 colon) was 5.44 µM, the TGI (HCC-2998 colon) was 16.8 µM and the GI50 (SK-OV-3 ovarian) was 10.4 µM. The TGI (SK-OV-3 ovarian) was 24.6 µM, the GI50 (PC-3 prostate) was 3.73 µM and the TGI (PC-3 prostate) was 32.7 µM. For the same compound, the GI50 (NCI-H522 lung) was 7.47 µM, the TGI (NCI-H522 lung) was 31.3 µM and the GI50 (U251 CNS) was 3.97 µM. The TGI (U251 CNS) was 22 µM, the GI50 (RXF 393 renal) was 3.12 µM and the TGI (RXF 393 renal) was 12.2 µM. The GI50 (MDA-MB-231 breast) was 5.77 µM, the TGI (MDA-MB-231 breast) was 19.8 µM and the GI50 (MALME-3M melanoma) was 2910 nM. The TGI (MALME-3M melanoma) was 9.41 µM, the GI50 (SK-MEL-28 melanoma) was 1910 nM and the TGI (SK-MEL-28 melanoma) was 3.89 µM. It also gave a GI50 (LOX IMVI melanoma) of 1540 nM, a TGI (LOX IMVI melanoma) of 3.97 µM and a GI50 (SF-539 CNS) of 1590 nM. For the same compound, the TGI (SF-539 CNS) was 3.36 µM, the GI50 (NCI-H226 lung) was 8.04 µM and the TGI (NCI-H226 lung) was > 41.4 µM. For the same compound, the GI50 (M14 melanoma) was 1860 nM, the TGI (M14 melanoma) was 3.69 µM and the GI50 (HOP-92 NSCLC) was 2370 nM. The TGI (HOP-92 NSCLC) was 24.2 µM, the GI50 (BT-549 breast) was 7.57 µM and the TGI (BT-549 breast) was 29.3 µM. For the same compound, the GI50 (UACC-257 melanoma) was 3.53 µM, the TGI (UACC-257 melanoma) was 11.2 µM and the GI50 (HCT-15 colon) was 1390 nM. The TGI (HCT-15 colon) was 5.01 µM, the GI50 (COLO 205 colon) was 1790 nM and the TGI (COLO 205 colon) was 3.71 µM. For the same compound, the GI50 (OVCAR-8 ovarian) was 12.8 µM, the TGI (OVCAR-8 ovarian) was > 53.2 µM and the GI50 (SF-268 CNS) was 2710 nM. The TGI (SF-268 CNS) was 12.2 µM, the GI50 (A549 NSCLC) was 7.27 µM and the TGI (A549 NSCLC) was 33.8 µM. It also gave a GI50 (SNB-75 CNS) of 5.97 µM, a TGI (SNB-75 CNS) of 23.3 µM and a GI50 (RPMI-8226 leukemia) of 2510 nM. For the same compound, the TGI (RPMI-8226 leukemia) was 18.5 µM, the GI50 (MOLT-4 leukemia) was 2500 nM and the TGI (MOLT-4 leukemia) was 14 µM. The GI50 (KM12 colon) was 4.41 µM, the TGI (KM12 colon) was 30.1 µM and the GI50 (IGROV1 ovarian) was 5.54 µM. For the same compound, the TGI (IGROV1 ovarian) was 25.1 µM, the GI50 (NCI-H23 lung) was 5.06 µM and the TGI (NCI-H23 lung) was 39.1 µM. It also gave a GI50 (OVCAR-3 ovarian) of 5.14 µM, a TGI (OVCAR-3 ovarian) of 21.9 µM and a GI50 (TK-10 renal) of 14.1 µM. It also gave a TGI (TK-10 renal) of 32.3 µM, a GI50 (ACHN renal) of 6.36 µM and a TGI (ACHN renal) of 32.6 µM. It also gave a GI50 (K-562 leukemia) of 849 nM, a TGI (K-562 leukemia) of 8.49 µM and a GI50 (HL-60(TB) leukemia) of 1610 nM. It also gave a TGI (HL-60(TB) leukemia) of 6.14 µM, a GI50 (HOP-62 NSCLC) of 4.3 µM and a TGI (HOP-62 NSCLC) of 9.85 µM. For the same compound, the GI50 (DU-145 prostate) was 10.7 µM, the TGI (DU-145 prostate) was > 100 µM and the GI50 (SK-MEL-5 melanoma) was 1570 nM. For the same compound, the TGI (SK-MEL-5 melanoma) was 4.17 µM, the GI50 (UACC-62 melanoma) was 2240 nM and the TGI (UACC-62 melanoma) was 5.28 µM. The GI50 (MDA-MB-435) was 2900 nM, the TGI (MDA-MB-435) was 10.1 µM and the GI50 (HS 578T breast) was 6.12 µM. For the same compound, the TGI (HS 578T breast) was 25.3 µM, the GI50 (UO-31 renal) was 1620 nM and the TGI (UO-31 renal) was 4.43 µM. The GI50 (OVCAR-4 ovarian) was 4.32 µM, the TGI (OVCAR-4 ovarian) was > 62 µM and the GI50 (CCRF-CEM leukemia) was 4.85 µM. The TGI (CCRF-CEM leukemia) was 28.9 µM, the GI50 (HCT-116 colon) was 1630 nM and the TGI (HCT-116 colon) was 5.27 µM. The GI50 (A498 renal) was 5.19 µM, the TGI (A498 renal) was 28.8 µM and the GI50 (CAKI-1 renal) was 5.96 µM. For the same compound, the TGI (CAKI-1 renal) was 23.9 µM, the GI50 (SK-MEL-2 melanoma) was 14.4 µM and the TGI (SK-MEL-2 melanoma) was 38.2 µM. The GI50 (786-0 renal) was 4.31 µM, the TGI (786-0 renal) was 14.2 µM and the GI50 (SN12C renal) was 9.11 µM. For the same compound, the TGI (SN12C renal) was > 44.5 µM, the GI50 (MCF7 breast) was 2950 nM and the TGI (MCF7 breast) was 21.1 µM. For the same compound, the GI50 (OVCAR-5 ovarian) was 10.6 µM, the TGI (OVCAR-5 ovarian) was 38.2 µM and the GI50 (SNB-19 CNS) was 17.8 µM. It also gave a TGI (SNB-19 CNS) of 60.4 µM, a GI50 (HT29 colon) of 496 nM and a TGI (HT29 colon) of 2920 nM. It also gave a GI50 (SW-620 colon) of 2860 nM, a TGI (SW-620 colon) of 10.5 µM and a GI50 (T-47D breast) of 1940 nM. It also gave a TGI (T-47D breast) of 31.2 µM, a GI50 (NCI-H460 lung) of 2530 nM and a TGI (NCI-H460 lung) of 8.88 µM. For the same compound, the GI50 (SF-295 CNS) was 3.45 µM, the TGI (SF-295 CNS) was 16.6 µM and the GI50 (NCI/ADR-RES ovarian) was 7.05 µM. The TGI (NCI/ADR-RES ovarian) was > 72.6 µM, the GI50 (EKVX NSCLC) was 3.12 µM and the TGI (EKVX NSCLC) was > 100 µM.
